PMC7156458, “Synthetic biology based construction of biological activity-related library of fungal decalin-containing diterpenoid pyrones” (Nature Communications, 2020)

Target: Aβ42 (Homo sapiens, UniProt P05067)
Assay: Th-T (thioflavin-T) assay of Aβ42 aggregation
Assay type: biochemical
Conditions: for Th-T assay plate reading, mean of three wells (Supplementary Fig. 47): source data, Ab alone and No Ab as controls

Chain of Aβ42 (P05067 672-713): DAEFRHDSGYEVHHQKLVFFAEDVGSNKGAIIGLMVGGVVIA

Th-T fluorescence, mean of three wells (Aβ42 aggregation time course, reading M117): 3.0425
Th-T fluorescence, mean of three wells (Aβ42 aggregation time course, reading M118): 3.0715
Th-T fluorescence, mean of three wells (Aβ42 aggregation time course, reading M119): 3.036
Th-T fluorescence, mean of three wells (Aβ42 aggregation time course, reading M120): 3.042
Th-T fluorescence, mean of three wells (Aβ42 aggregation time course, reading M121): 3.063
Th-T fluorescence, mean of three wells (Aβ42 aggregation time course, reading M122): 3.055
Th-T fluorescence, mean of three wells (Aβ42 aggregation time course, reading M123): 3.062
Th-T fluorescence, mean of three wells (Aβ42 aggregation time course, reading M124): 3.061
Th-T fluorescence, mean of three wells (Aβ42 aggregation time course, reading M125): 3.081
Th-T fluorescence, mean of three wells (Aβ42 aggregation time course, reading M126): 3.018
Th-T fluorescence, mean of three wells (Aβ42 aggregation time course, reading M127): 3.038
Th-T fluorescence, mean of three wells (Aβ42 aggregation time course, reading M128): 3.027
Th-T fluorescence, mean of three wells (Aβ42 aggregation time course, reading M129): 3.02
Th-T fluorescence, mean of three wells (Aβ42 aggregation time course, reading M130): 3.02
Th-T fluorescence, mean of three wells (Aβ42 aggregation time course, reading M131): 3.032
Th-T fluorescence, mean of three wells (Aβ42 aggregation time course, reading M132): 3.01
Th-T fluorescence, mean of three wells (Aβ42 aggregation time course, reading M133): 3.061
Th-T fluorescence, mean of three wells (Aβ42 aggregation time course, reading M134): 3.045
Th-T fluorescence, mean of three wells (Aβ42 aggregation time course, reading M135): 3.053
Th-T fluorescence, mean of three wells (Aβ42 aggregation time course, reading M136): 3.034
Th-T fluorescence, mean of three wells (Supplementary Fig. 47, reading M137): 3.021
Th-T fluorescence, mean of three wells (Supplementary Fig. 47, reading M138): 3.036
Th-T fluorescence, mean of three wells (Supplementary Fig. 47, reading M139): 3.036
Th-T fluorescence, mean of three wells (Supplementary Fig. 47, reading M140): 3.0121
Th-T fluorescence, mean of three wells (Supplementary Fig. 47, reading M141): 3.01
Th-T fluorescence, mean of three wells (Supplementary Fig. 47, reading M142): 2.999
Th-T fluorescence, mean of three wells (Supplementary Fig. 47, reading M143): 3.017
Th-T fluorescence, mean of three wells (Supplementary Fig. 47, reading M144): 3.0125
Th-T fluorescence, mean of three wells (Supplementary Fig. 47, reading M145): 3.0288
Th-T fluorescence, mean of three wells (Supplementary Fig. 47 source data, measurement M37 of time course): 3.017
Th-T fluorescence, mean of three wells (Supplementary Fig. 47 source data, measurement M38 of time course): 3.04
Th-T fluorescence, mean of three wells (Supplementary Fig. 47 source data, measurement M39 of time course): 3.05
Th-T fluorescence, mean of three wells (Supplementary Fig. 47 source data, measurement M40 of time course): 3.045
Th-T fluorescence, mean of three wells (Supplementary Fig. 47 source data, measurement M41 of time course): 3.085
Th-T fluorescence, mean of three wells (Supplementary Fig. 47 source data, measurement M42 of time course): 3.072
Th-T fluorescence, mean of three wells (Supplementary Fig. 47 source data, measurement M43 of time course): 3.079
Th-T fluorescence, mean of three wells (Supplementary Fig. 47 source data, measurement M44 of time course): 3.068
Th-T fluorescence, mean of three wells (Supplementary Fig. 47 source data, measurement M45 of time course): 3.111
Th-T fluorescence, mean of three wells (Supplementary Fig. 47 source data, measurement M46 of time course): 3.079
Th-T fluorescence, mean of three wells (Supplementary Fig. 47 source data, measurement M47 of time course): 3.097
Th-T fluorescence, mean of three wells (Supplementary Fig. 47 source data, measurement M48 of time course): 3.117
Th-T fluorescence, mean of three wells (Supplementary Fig. 47 source data, measurement M49 of time course): 3.11
Th-T fluorescence, mean of three wells (Supplementary Fig. 47 source data, measurement M50 of time course): 3.114
Th-T fluorescence, mean of three wells (Supplementary Fig. 47 source data, measurement M51 of time course): 3.119
Th-T fluorescence, mean of three wells (Supplementary Fig. 47 source data, measurement M52 of time course): 3.113
Th-T fluorescence, mean of three wells (Supplementary Fig. 47 source data, measurement M53 of time course): 3.12
Th-T fluorescence, mean of three wells (Supplementary Fig. 47 source data, measurement M54 of time course): 3.1191
Th-T fluorescence, mean of three wells (Supplementary Fig. 47 source data, measurement M55 of time course): 3.1238
Th-T fluorescence, mean of three wells (Supplementary Fig. 47 source data, measurement M56 of time course): 3.106
Th-T assay plate reading, mean of three wells (Supplementary Fig. 47) (measurement M1): 0.3106
Th-T assay plate reading, mean of three wells (Supplementary Fig. 47) (measurement M2): 0.3077
Th-T assay plate reading, mean of three wells (Supplementary Fig. 47) (measurement M3): 0.3313
Th-T assay plate reading, mean of three wells (Supplementary Fig. 47) (measurement M4): 0.3664
Th-T assay plate reading, mean of three wells (Supplementary Fig. 47) (measurement M5): 0.4514
Th-T assay plate reading, mean of three wells (Supplementary Fig. 47) (measurement M6): 0.4846
Th-T assay plate reading, mean of three wells (Supplementary Fig. 47) (measurement M7): 0.512
Th-T assay plate reading, mean of three wells (Supplementary Fig. 47) (measurement M8): 0.5981
Th-T assay plate reading, mean of three wells (Supplementary Fig. 47) (measurement M9): 0.6456
Th-T assay plate reading, mean of three wells (Supplementary Fig. 47) (measurement M10): 0.6881
Th-T assay plate reading, mean of three wells (Supplementary Fig. 47) (measurement M11): 0.7275
Th-T assay plate reading, mean of three wells (Supplementary Fig. 47) (measurement M12): 0.7567
Th-T assay plate reading, mean of three wells (Supplementary Fig. 47) (measurement M13): 0.7872
Th-T assay plate reading, mean of three wells (Supplementary Fig. 47) (measurement M14): 0.8218
Th-T assay plate reading, mean of three wells (Supplementary Fig. 47) (measurement M15): 0.8797
Th-T assay plate reading, mean of three wells (Supplementary Fig. 47) (measurement M16): 0.9731
Th-T fluorescence, mean of three wells (reading M17, Supplementary Fig. 47 source data): 1.192
Th-T fluorescence, mean of three wells (reading M18, Supplementary Fig. 47 source data): 1.512
Th-T fluorescence, mean of three wells (reading M19, Supplementary Fig. 47 source data): 1.858
Th-T fluorescence, mean of three wells (reading M20, Supplementary Fig. 47 source data): 2.193
Th-T fluorescence, mean of three wells (reading M21, Supplementary Fig. 47 source data): 2.479
Th-T fluorescence, mean of three wells (reading M22, Supplementary Fig. 47 source data): 2.615
Th-T fluorescence, mean of three wells (reading M23, Supplementary Fig. 47 source data): 2.7089
Th-T fluorescence, mean of three wells (reading M24, Supplementary Fig. 47 source data): 2.736
Th-T fluorescence, mean of three wells (reading M25, Supplementary Fig. 47 source data): 2.775
Th-T fluorescence, mean of three wells (reading M26, Supplementary Fig. 47 source data): 2.797
Th-T fluorescence, mean of three wells (reading M27, Supplementary Fig. 47 source data): 2.826
Th-T fluorescence, mean of three wells (reading M28, Supplementary Fig. 47 source data): 2.834
Th-T fluorescence, mean of three wells (reading M29, Supplementary Fig. 47 source data): 2.861
Th-T fluorescence, mean of three wells (reading M30, Supplementary Fig. 47 source data): 2.901
Th-T fluorescence, mean of three wells (reading M31, Supplementary Fig. 47 source data): 2.9009
Th-T fluorescence, mean of three wells (reading M32, Supplementary Fig. 47 source data): 2.941
Th-T fluorescence, mean of three wells (reading M33, Supplementary Fig. 47 source data): 2.954
Th-T fluorescence, mean of three wells (reading M34, Supplementary Fig. 47 source data): 2.9825
Th-T fluorescence, mean of three wells (reading M35, Supplementary Fig. 47 source data): 2.976
Th-T fluorescence, mean of three wells (reading M36, Supplementary Fig. 47 source data): 3.001
Th-T fluorescence, mean of three wells (time course, reading M57): 3.126
Th-T fluorescence, mean of three wells (time course, reading M58): 3.154
Th-T fluorescence, mean of three wells (time course, reading M59): 3.098
Th-T fluorescence, mean of three wells (time course, reading M60): 3.135
Th-T fluorescence, mean of three wells (time course, reading M61): 3.131
Th-T fluorescence, mean of three wells (time course, reading M62): 3.132
Th-T fluorescence, mean of three wells (time course, reading M63): 3.122
Th-T fluorescence, mean of three wells (time course, reading M64): 3.115
Th-T fluorescence, mean of three wells (time course, reading M65): 3.114
Th-T fluorescence, mean of three wells (time course, reading M66): 3.129
Th-T fluorescence, mean of three wells (time course, reading M67): 3.159
Th-T fluorescence, mean of three wells (time-course reading M97, Supplementary Fig. 47 source data): 3.103
Th-T fluorescence, mean of three wells (time-course reading M98, Supplementary Fig. 47 source data): 3.123
Th-T fluorescence, mean of three wells (time-course reading M99, Supplementary Fig. 47 source data): 3.102
Th-T fluorescence, mean of three wells (time-course reading M100, Supplementary Fig. 47 source data): 3.074
Th-T fluorescence, mean of three wells (time-course reading M101, Supplementary Fig. 47 source data): 3.118
Th-T fluorescence, mean of three wells (time-course reading M102, Supplementary Fig. 47 source data): 3.1
Th-T fluorescence, mean of three wells (time-course reading M103, Supplementary Fig. 47 source data): 3.088
Th-T fluorescence, mean of three wells (time-course reading M104, Supplementary Fig. 47 source data): 3.101
Th-T fluorescence, mean of three wells (time-course reading M105, Supplementary Fig. 47 source data): 3.114
Th-T fluorescence, mean of three wells (time-course reading M106, Supplementary Fig. 47 source data): 3.076
Th-T fluorescence, mean of three wells (time-course reading M107, Supplementary Fig. 47 source data): 3.094
Th-T fluorescence, mean of three wells (time-course reading M108, Supplementary Fig. 47 source data): 3.063
Th-T fluorescence, mean of three wells (time-course reading M109, Supplementary Fig. 47 source data): 3.057
Th-T fluorescence, mean of three wells (time-course reading M110, Supplementary Fig. 47 source data): 3.049
Th-T fluorescence, mean of three wells (time-course reading M111, Supplementary Fig. 47 source data): 3.101
Th-T fluorescence, mean of three wells (time-course reading M112, Supplementary Fig. 47 source data): 3.097
Th-T fluorescence, mean of three wells (time-course reading M113, Supplementary Fig. 47 source data): 3.03
Th-T fluorescence, mean of three wells (time-course reading M114, Supplementary Fig. 47 source data): 3.07
Th-T fluorescence, mean of three wells (time-course reading M115, Supplementary Fig. 47 source data): 3.098
Th-T fluorescence, mean of three wells (time-course reading M116, Supplementary Fig. 47 source data): 3.06
Structure (SMILES): C=C1CC[C@H]2[C@]3(C)C[C@H](C=C(C)C)O[C@H]3CC[C@]2(C)[C@@H]1Cc1c(O)c(C)c(C)oc1=O [Compound 6, subglutinol B]
